# Measurements taken from PMC6928678, “Simplified Head-to-Tail Cyclic Polypeptides as Biomaterial-Associated Antimicrobials with Endotoxin Neutralizing and Anti-Inflammatory Capabilities” (International Journal of Molecular Sciences, 2019).
# Like-named read-outs stand apart in the source and are kept apart here. Where a SMILES comes first, the peptide text is derived from it. Where no end group is shown, it is not given here. [ ]: non-standard residue; d: D form.
# Key:
# [1] = test system: gram-positive strains tested; experiment: organism not typed; format: cell-based
# Description: (§1) Briefly, the bacteria were incubated overnight at 37 °C with constant shaking at 220 rpm, then were transferred to new MH broth (MHB) medium until they reached the logarithmic phase of growth. The bacteria were then diluted to 10^5 (CFU)/mL in MHB. The peptides were dissolved and diluted in 0.01% acetic acid and 0.2% bovine serum albumin (BSA) at various concentrations (0.5–128 μM) in each well of sterile 96-well plates and incubated for 20 h at 37 °C. […] The test was repeated three times.
# [2] = test system: all the 9 bacteria tested; experiment: Geometric mean of MICs, all 9 bacteria; format: cell-based; conditions: for tGM, geometric mean of the MICs against all the 9 bacteria: all 9 bacteria tested; for GM MIC (range of Gram-negative and Gram-positive geometric means): Table 2
# Description: as §1
# S. aureus 29213 = experiment: microbe, parasite or virus in culture; format: cell-based, Staphylococcus aureus
# Description: (§2) The test strains, including Gram-negative E. coli ATCC25922, E. coli ATCC 1005, S. typhimurium C7731, P. aeruginosa ATCC 27853, S. Typhimurium 14028, Gram-positive S. aureus ATCC29213, S. aureus ATCC 25923, S. epidermidis ATCC 12228 and S. aureus 43300, were obtained from the School of Veterinary Medicine, Northeast Agricultural University (Harbin, China).
# as §1
# S. aureus 25923 = experiment: microbe, parasite or virus in culture; format: cell-based, Staphylococcus aureus
# Description: as §2, §1
# [3] = test system: human red blood cells (hRBCs); experiment: Hemolysis assay; format: cell-based
# Description: Figure 2 (A) Hemolytic activity of the engineered peptides against human red blood cells (hRBCs). The hRBCs were incubated with equal amounts of the respective peptides dissolved in PBS for 1 h at 37 °C. (B) Cytotoxicity of the engineered peptides against RAW264.7. […] Data shown are three independent experiments.
# The hemolytic activity of the peptides is determined by measuring the amount of hemoglobin released during the lysis of human erythrocytes at different concentrations of AMPs. Briefly, fresh, healthy human red blood cells (hRBCs) were collected and then washed three times with phosphate-buffered saline (PBS) buffer (pH 7.2) and centrifuged at 1000× g for 5 min. Each 50 µL sample of hRBCs was incubated with 50 µL of the respective peptide dissolved in PBS in a well of a 96-well plate for 1 h at 37 °C. After incubation, the samples were centrifuged at 1000× g for 5 min and the supernatants (50 μL) were transferred to a new 96-well microplate. The release of hemoglobin was measured by monitoring the OD at 570 nm (Tecan, Salzburg, Austria). Negative (hRBCs without AMP treatment) and positive (hRBCs treated with 0.1% TritonX-100) controls were used. The concentration of peptide that caused 5% hemolysis was considered the minimal hemolysis concentration (MHC). The test was repeated three times. The percent hemolysis was calculated using the following formula:(2) Percent hemolysis=A−A0/At−A0× 100% A0 and At represent 0% and 100% hemolysis as measured in 10 mM PBS and 0.2% Triton X-100, respectively.
# E. coli UB 1005 = experiment: microbe, parasite or virus in culture; format: cell-based, Escherichia coli
# Description: as §2, §1
# E. coli 25922 = experiment: microbe, parasite or virus in culture; format: cell-based, Escherichia coli
# Description: as §2, §1
# P. aeruginosa 27853 = experiment: microbe, parasite or virus in culture; format: cell-based
# Description: as §2, §1
# S. typhimurium 7731 = experiment: microbe, parasite or virus in culture; format: cell-based
# Description: as §2, §1
# S. epidermidis 12228 = experiment: microbe, parasite or virus in culture; format: cell-based
# Description: as §2, §1
# S. typhimurium 14028 = experiment: microbe, parasite or virus in culture; format: cell-based
# Description: as §2, §1
# [4] = test system: gram-negative strains tested; experiment: Geometric mean of MICs, gram-negative strains; format: cell-based; conditions: 5 gram-negative strains; >128 apparently counted as 256; read-out: nGM (–), geometric mean of the MICs against gram-negative strains
# Description: as §1
# MRSA43300 = experiment: microbe, parasite or virus in culture; format: cell-based, Methicillin-resistant Staphylococcus aureus
# Description: as §2, §1
# [5] = test system: Gram-positive and Gram-negative bacteria; experiment: Antimicrobial assay (MIC), statement over all strains; format: cell-based; conditions: all strains tested
# Description: as §1
Molecule,"pGM (+), geometric mean of the MICs against gram-positive strains ([1]; 20 h)","tGM, geometric mean of the MICs against all the 9 bacteria [2]","MIC (S. aureus 29213; 29213, 20 h)","MIC (S. aureus 25923; 25923, 20 h)","MHC5, minimum hemolytic concentration that induced ≥5% hemolysis ([3]; red cells of human, 1 h)","MIC (E. coli UB 1005; UB 1005, 20 h)","MIC (E. coli 25922; 25922, 20 h)","MIC (P. aeruginosa 27853; 27853, 20 h, read-out: MIC)","MIC (S. typhimurium 7731; 7731, 20 h)","MIC (S. epidermidis 12228; 12228, 20 h)","MIC (S. typhimurium 14028; 14028, 20 h)",MIC [4],MIC (MRSA43300; 20 h),further results
CC[C@H](C)[C@H](N)C(=O)N[C@@H](CCCNC(=N)N)C(=O)N[C@H](C(=O)N[C@@H](CCCNC(=N)N)C(=O)N1CCC[C@@H]1C(=O)N[C@H](C(=O)N[C@@H](CCCNC(=N)N)C(=O)N[C@H](C(=O)N[C@@H](CCCNC(=N)N)C(=O)N1CCC[C@@H]1C(=O)O)[C@@H](C)CC)[C@@H](C)CC)[C@@H](C)CC [DIR2] (H-IRIR[dP]IRIR[dP]-OH),256 µM,219.5 µM,>128 µM,>128 µM,>128 µM,128 µM,128 µM,>128 µM,>128 µM,>128 µM,>128 µM,194.0 µM,>128 µM,–
"O=C(N[C@H](CO)[C@H](O)c1ccc([N+](=O)[O-])cc1)C(Cl)Cl [CH, Chloramphenicol, reference compound]",–,–,–,–,–,–,–,–,–,–,–,18.4 µM,–,"MIC ([1]; read-out: pGM (+), geometric mean of the MICs against gram-positive strains): 22.6 µM; GM MIC (range of Gram-negative and Gram-positive geometric means) [2]: 18.4 to 22.6 µM; MIC ([2]; read-out: tGM, geometric mean of the MICs against all the 9 bacteria): 20.2 µM; MIC (S. aureus 29213; Staphylococcus aureus, S. aureus 29213, MHB, 10^5 CFU/mL, 20 h 37 °C, repeated three times): 8 µM; MIC (S. aureus 25923; Staphylococcus aureus, S. aureus 25923, MHB, 10^5 CFU/mL, 20 h 37 °C, repeated three times): 32 µM; MHC5, minimum hemolytic concentration that induced ≥5% hemolysis ([3]; human red blood cells, PBS, 1 h at 37 °C, OD 570 nm, repeated three times): >128 µM; MIC (E. coli UB 1005; Escherichia coli, UB1005, E. coli UB 1005, MHB, 10^5 CFU/mL, 20 h 37 °C, repeated three times): 4 µM; MIC (E. coli 25922; Escherichia coli, E. coli 25922, MHB, 10^5 CFU/mL, 0.5–128 μM peptide, 20 h 37 °C, OD 492 nm, repeated three times): 16 µM; MIC (P. aeruginosa 27853; Pseudomonas aeruginosa, 27853, 20 h): > 128 µM; MIC (S. typhimurium 7731; Salmonella enterica, S. typhimurium 7731, MHB, 10^5 CFU/mL, 20 h 37 °C, repeated three times): 8 µM; MIC (S. epidermidis 12228; Staphylococcus epidermidis, S. epidermidis 12228, MHB, 10^5 CFU/mL, 20 h 37 °C, repeated three times): 32 µM; MIC (S. typhimurium 14028; Salmonella enterica, S. typhimurium 14028, MHB, 10^5 CFU/mL, 20 h 37 °C, repeated three times): 16 µM; MIC (MRSA43300; Staphylococcus aureus, MRSA43300, MHB, 10^5 CFU/mL, 20 h 37 °C, repeated three times): 32 µM"
IRIRPIRIRP [IR2],256 µM,256 µM,>128 µM,>128 µM,>128 µM,>128 µM,>128 µM,>128 µM,>128 µM,>128 µM,>128 µM,256 µM,>128 µM,–
IRIRIRPIRIRIRP [IR3],90.5 µM,–,64 µM,64 µM,>128 µM,8 µM,16 µM,8 µM,16 µM,>128 µM,16 µM,12.1 µM,64 µM,–
IRPIRP [IR1],256 µM,256 µM,>128 µM,>128 µM,>128 µM,>128 µM,>128 µM,>128 µM,>128 µM,>128 µM,>128 µM,256 µM,>128 µM,MIC in the presence of Gram-positive and Gram-negative bacteria [5]: greater than 128 μM
CC[C@H](C)[C@H](N)C(=O)N[C@@H](CCCNC(=N)N)C(=O)N[C@H](C(=O)N[C@@H](CCCNC(=N)N)C(=O)N[C@H](C(=O)N[C@@H](CCCNC(=N)N)C(=O)N1CCC[C@@H]1C(=O)N[C@H](C(=O)N[C@@H](CCCNC(=N)N)C(=O)N[C@H](C(=O)N[C@@H](CCCNC(=N)N)C(=O)N[C@H](C(=O)N[C@@H](CCCNC(=N)N)C(=O)N1CCC[C@@H]1C(=O)O)[C@@H](C)CC)[C@@H](C)CC)[C@@H](C)CC)[C@@H](C)CC)[C@@H](C)CC [DIR3] (H-IRIRIR[dP]IRIRIR[dP]-OH),45.3 µM,–,8 µM,64 µM,>128 µM,4 µM,4 µM,8 µM,4 µM,128 µM,16 µM,–,64 µM,–
"Colistin Sulfate [CS, reference compound]",–,5.9 µM,–,–,–,–,–,–,–,–,–,0.8 µM,–,"pGM (+), geometric mean of the MICs against gram-positive strains ([1]; 4 gram-positive strains, >128 apparently counted as 256): 76.1 µM; GM MIC (range of Gram-negative and Gram-positive geometric means) [2]: 0.8 to 76.1 µM; MIC (S. aureus 29213; S. aureus 29213, MHB, 10^5 CFU/mL, 20 h 37 °C, repeated three times): 64 µM; MIC (S. aureus 25923; S. aureus 25923, MHB, 10^5 CFU/mL, 20 h 37 °C, repeated three times): 64 µM; MIC (E. coli UB 1005; E. coli UB 1005, MHB, 10^5 CFU/mL, 20 h 37 °C, repeated three times): 0.5 µM; MIC (E. coli 25922; E. coli 25922, MHB, 10^5 CFU/mL, 0.5–128 μM peptide, 20 h 37 °C, OD 492 nm, repeated three times): 0.5 µM; MIC (P. aeruginosa 27853; P. aeruginosa 27853, MHB, 10^5 CFU/mL, 20 h 37 °C, repeated three times, read-out: MIC): 0.5 µM; MIC (S. typhimurium 7731; S. typhimurium 7731, MHB, 10^5 CFU/mL, 20 h 37 °C, repeated three times): 0.5 µM; MIC (S. epidermidis 12228; S. epidermidis 12228, MHB, 10^5 CFU/mL, 20 h 37 °C, repeated three times): 128 µM; MIC (S. typhimurium 14028; S. typhimurium 14028, MHB, 10^5 CFU/mL, 20 h 37 °C, repeated three times): 4 µM; MIC (MRSA43300; MRSA43300, MHB, 10^5 CFU/mL, 20 h 37 °C, repeated three times): 64 µM"
CC[C@H](C)[C@H](N)C(=O)N[C@@H](CCCNC(=N)N)C(=O)N1CCC[C@@H]1C(=O)N[C@H](C(=O)N[C@@H](CCCNC(=N)N)C(=O)N1CCC[C@@H]1C(=O)O)[C@@H](C)CC [DIR1] (H-IR[dP]IR[dP]-OH),256 µM,256 µM,>128 µM,>128 µM,>128 µM,>128 µM,>128 µM,>128 µM,>128 µM,>128 µM,>128 µM,256 µM,>128 µM,MIC in the presence of Gram-positive and Gram-negative bacteria [5]: greater than 128 μM
